# Structures can show the parent of a compound that is named as a salt.
# Test system: Burkholderia andropogonis
# Assay: Absorbent disc test on a bacterial lawn on agar (kill zone)
# Type: cell-based
# Details: intermediate concentration tested; absorbent discs on bacterial lawn
# From the text: To determine the sensitivity of Burkholderia andropogonis, a stock was applied to commercially prepared agar-containing Petri dishes to provide dishes containing a lawn of bacteria. Then, absorbent discs containing a mixture of oxytetracycline hydrochloride and copper oxychloride, and each of the active ingredients separately, oxytetracycline hydrochloride alone and copper oxychloride alone were placed onto the bacterial lawn. The concentrations of the individual active agents in the discs were the same as that for each found in the combination. The combination and the individual actives were tested at three different concentrations. Each concentration was run in triplicate.
# An analogous commercially available system for making routine determinations of bacterial and fungal sensitivity also was used.
# The toxicity at each concentration was far greater than the sum of the toxicities of each active agent alone, for example, at the intermediate concentration tested, the bacteria kill zone for oxytetracycline was 3.3 mm in diameter; for copper oxychloride, the zone was 2 mm in diameter; but for the combination, the kill zone was 15 mm in diameter.
row,SMILES,bacteria kill zone in diameter
1,CN(C)[C@@H]1C(O)=C(C(N)=O)C(=O)[C@@]2(O)C(O)=C3C(=O)c4c(O)cccc4[C@@](C)(O)[C@H]3[C@H](O)[C@@H]12 [oxytetracycline hydrochloride],3.3 mm
2,[Cl-].[Cu+2].[Cu+2].[OH-].[OH-].[OH-] [copper oxychloride],2 mm
